# According to paper PMC6173696, “Structural properties of a haemophore facilitate targeted elimination of the pathogen Porphyromonas gingivalis” (Nature Communications, 2018):
# What was measured:
# HusA [1] = molecular target: T1, HusA (Porphyromonas gingivalis, UniProt Q7MSY3); test: Tryptophan fluorescence quenching assay, HusA wild-type; format: binding; settings: HusA wild-type 1 µM, fit to 1:1 binding model; read-out: Kd
# T1 sequence (Q7MSY3 24-218): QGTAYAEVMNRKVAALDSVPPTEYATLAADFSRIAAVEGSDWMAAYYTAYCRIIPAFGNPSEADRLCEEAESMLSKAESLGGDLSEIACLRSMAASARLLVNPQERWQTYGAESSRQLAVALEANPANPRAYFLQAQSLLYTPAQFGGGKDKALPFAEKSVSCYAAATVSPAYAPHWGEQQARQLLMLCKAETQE
# Method: The quenching of intrinsic tryptophan fluorescence of HusA upon porphyrin additions was measured using a Carey Eclipse Fluorescence Spectrophotometer (Agilent) set to a photo multiplier effect (PME) of 850. A 5-mm path length quartz cuvette was used and all spectra were acquired at room temperature. Excitation was set to 295 nm and emission was measured from 300 nm to 500 nm using excitation/emission slit widths of 5 nm. Binding assays were performed at a protein concentration of 1 μM HusA in standard buffer at a working volume of 0.5 mL. […] The fluorescence quenching of HusA by PPIX was investigated in a similar manner with the following difference: the fluorescence intensities of ten 1 μM HusA samples were measured each with increasing amounts of PPIX after a 2-h incubation period to allow equilibrium to be reached. See Supplementary Methods for correction for inner filter effect and curve fitting. […]
# Correction of inner filter effect and curve fitting in tryptophan fluorescence quenching assays The concentration of NATA was chosen such that the raw fluorescence intensity was similar to the […] concentrations of HusA and mutants used. The same molarity titrants of porphyrin were titrated into NATA as were added into HusA in the control reactions. Fluorescence intensity was scaled with respect to the starting florescence and corrected for the inner filter effect. Fluorescence at 335 nm was used to fit binding curves.
# The correction method is based on Fonin AV., et al.26, noting that a Cary Eclipse spectrofluorimeter […]
# performed to measure the contribution to the decrease in fluorescence due to the inner filter effect and this effect was scaled to the starting fluorescence values as fractional changes. The measured fluorescence at each titration point for each of the porphyrin titrations into protein was then adjusted for this contribution. Fluorescence at 335 nm was used to fit binding curves. Association constant, Ka, was fitted using the following equation in Origin, assuming a single binding site. A dissociation constant, Kd, was calculated by taking the inverse of the Ka.
# Xobs = XA×f A+XAB×f AB (1) where XA is the corrected fluorescence, fA=1-fAB, fAB=x/(Bt), x=(-b-sqrt(b2-4×c))/2, b=-(1/Ka+At+Bt), c=Bt×At, Bt=total concentration of protein, At=total concentration of ligand.
# To aid comparison of the different titrations, the corrected fluorescence was scaled to the starting fluorescence in the absence of porphyrins (i.e. all fluorescence curves have a starting value of one
# [2] = tested on: P. gingivalis wild-type W83; test: Checkerboard / broth micro-dilution assay (MIC, MBC), wild-type W83; format: cell-based, Porphyromonas gingivalis; settings: Porphyromonas gingivalis; planktonic W83, 24 h, anaerobic; read-out: minimal inhibitory concentration
# Excerpt: Fig. 5 A prototype DPIX-conjugated antibiotic binds HusA and inhibits P. gingivalis. a The chemical structure of the deuteroporphyrin-lysine-metronidazole adduct, P8. b NMR signal intensity changes (black) and ^1H^N CSPs (red/green) for HusA upon addition of P8 (measured from ^15N-HSQC spectra shown in Supplementary Figure 21). c In silico docking of P8 to the energy minimized structure of HusA (conformer set 1), with residues experiencing NMR signal loss (orange) or CSPs (red/green) mapped to the structure (colouring as described in Fig. 2d). d Scaled and corrected fluorescence at 335 nm during titration of 1 μM of HusA with increasing concentrations of P8, haemin or DPIX. e Comparison of P8 inhibitory effect towards P. gingivalis wild-type W83 and husA mutants using checkerboard analysis. Serial dilutions of antibiotics (horizontal axis) were applied to a 96-well plate with different P. gingivalis strains (vertical axis). Serial dilutions of DPIX were also supplemented into wild-type W83 group to evaluate the competitive effect against P8. Absorption at OD600 of each well was recorded after 24 h of incubation. The OD600 of each strain grown in the absence of antibiotics was defined as 100% growth, which was applied to normalise the reading collected from other wells. The normalised percentage of each well was plotted in the checkerboard. Metronidazole alone and in combination with PPIX or DPIX was applied as control. f Intracellular killing assay of P8 antibiotics. Gingival H413 epithelial cells were infected by P. gingivalis W83 and then treated with P8 at various concentrations. Recovered bacteria were determined by CFU count. Metronidazole and DMSO were used as control. Three independent experiments with triplicate assays were conducted. […]
# [3] = tested on: P. gingivalis wild-type W83; test: Checkerboard analysis of metronidazole with PPIX or DPIX, iron-replete and -limited; format: cell-based, Porphyromonas gingivalis; settings: iron replete or iron-limited conditions
# Method: Supplementary Figure 24. Comparison of metronidazole inhibitory effect towards P. gingivalis wild-type W83 in the presence of PPIX or DPIX under iron-replete and -limited conditions by checkerboard analysis. Serial dilutions of antibiotics along the horizontal axis were applied to a 96-well plate with P. gingivalis W83. Two pre-determined concentrations of PPIX or DPIX were supplemented to evaluate the synergistic effect between metronidazole and porphyrins. Dipyridyl (at 100 µM) was also applied to explore the potential effect under iron-replete and iron-depleted conditions. Absorption at OD600 of each well was recorded after 24 h of incubation. The OD600 of each strain grown in the absence of antibiotics was defined as 100% growth which was applied to normalise the reading collected from other wells. The normalised percentage of each well was plotted […]
# (1 picture or pasted object on this page, not shown here)
# HusA [4] = molecular target: T1, HusA; test: UV-visible absorption spectral analysis of ligand interaction with HusA; format: binding
# Method: All absorbance spectra were recorded at room temperature using 10-mm quartz cuvettes on a Shimadzu UV-1601 or Jasco V-630 spectrophotometer. Mixtures of HusA/mutant with porphyrins were prepared by dissolving porphyrin stocks in standard buffer to a final concentration of 5–20 μM with a 1–1.5 molar ratio of protein to porphyrin, as specified in the relevant figure legends. PPIX:HusA mixtures were prepared by incremental addition of 2–4 μM HusA with a 10–15 min wait after each addition of HusA.
# P. gingivalis W83 = test: Growth of starved W83 with titration of dipyridyl; format: cell-based, Porphyromonas gingivalis
# Excerpt: This manuscript further describes HusA protein. Although very sophisticated methods were used and interesting results were gained, this study requires more work to be convincing. The conclusions drawn (mainly regarding the possibility that porphyrin-metronidazole conjugate could be used to treat P. gingivalis infection) are very strong but not supported enough by the data presented.
# - How is this possible that P. gingivalis grows in the culture medium lacking iron (dipyridyl added) and supplemented with porphyrins without metal inside the porphyrin ring (Fig 1, panel A)? What serves as an iron source allowing P. gingivalis to grow? Were the bacteria starved before these experiments? Please explain this more carefully.
# Response: We agree with the reviewer that P. gingivalis requires both iron and porphyrin to survive. Iron is naturally present in the complex medium, enriched tryptic soy broth (eTSB), used in this study. The iron concentration of TSB medium has been previously determined at 0.74 µg/mL by atomic absorption spectrophotometry (de Oliverira Moreira L., et al., 2003 AEM) which requires approximately 500 µM dipyridyl to chelate all available iron in the medium (Scharfman AH 1996 I&I). The dipyridyl used in this study is 100 µM and the remaining iron provided by the TSB medium is sufficient to support P. gingivalis growth. […]
Compound,Kd (HusA [1]) [nM],interaction with HusA by UV-visible absorption (HusA [4]),also measured
"CC1=Cc2cc3[n-]c(cc4[n-]c(cc5nc(cc1n2)C=C5C)c(C)c4CCC(=O)[O-])c(CCC(=O)[O-])c3C.[Fe+2].[H+].[H+] [Fe(III)DPIX, iron(III) deuteroporphyrin IX]",220 ± 50,–,–
"Cc1ncc([N+](=O)[O-])n1CCO [Metronidazole, metronidazole]",–,–,MIC [2]: 5 to 10 µM
"C=CC1=C(C)c2cc3[nH]c(cc4nc(cc5[nH]c(cc1n2)c(C)c5CCC(=O)O)C(CCC(=O)O)=C4C)c(C)c3C=C [PPIX, protoporphyrin-IX]",1900 ± 600,–,sensitisation of P. gingivalis cells towards metronidazole [3]: Neither PPIX nor DPIX sensitised
C=CC1=C(C)/C(=C/c2[nH]c(Cc3[nH]c(/C=C4\NC(=O)C(C)=C4C=C)c(C)c3CCC(=O)O)c(CCC(=O)O)c2C)NC1=O [bilirubin],–,no interaction,–
C=CC1=C(C)/C(=C/C2=NC(=C\c3[nH]c(/C=C4\NC(=O)C(C)=C4C=C)c(C)c3CCC(=O)O)/C(CCC(=O)O)=C2C)NC1=O [biliverdin],–,no interaction,–
"c1ccc(-c2ccccn2)nc1 [dipyridyl, 2,2’-dipyridyl]",–,–,dipyridyl concentration at which growth recovery after starvation was observed (P. gingivalis W83): up to 200 µM; dipyridyl concentration at which P. gingivalis failed to recover (P. gingivalis W83; W83 after starvation): ≥ 500 µM
